Target: T1, aromatase (CYP19) (Homo sapiens, UniProt P11511)
T1 sequence (P11511 1-503): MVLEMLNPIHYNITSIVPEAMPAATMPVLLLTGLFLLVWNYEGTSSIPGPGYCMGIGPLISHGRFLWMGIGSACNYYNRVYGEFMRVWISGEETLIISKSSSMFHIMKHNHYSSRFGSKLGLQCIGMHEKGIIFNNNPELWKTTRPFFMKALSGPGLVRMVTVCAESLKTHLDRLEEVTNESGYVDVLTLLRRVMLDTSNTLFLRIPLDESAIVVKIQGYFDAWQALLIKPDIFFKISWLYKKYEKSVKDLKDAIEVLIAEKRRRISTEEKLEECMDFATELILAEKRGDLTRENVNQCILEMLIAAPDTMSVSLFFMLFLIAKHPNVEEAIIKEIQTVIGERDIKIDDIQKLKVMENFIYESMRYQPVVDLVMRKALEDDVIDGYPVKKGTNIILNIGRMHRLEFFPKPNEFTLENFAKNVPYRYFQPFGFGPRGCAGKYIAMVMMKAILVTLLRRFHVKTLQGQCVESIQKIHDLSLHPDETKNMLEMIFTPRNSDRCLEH
Format: cell-based

- IC50: 9.73 µM
Compound: C/C=C(\C)c1cc(O)c(C)c2c1Oc1cc(O)cc(C)c1C(=O)O2 [UNG, unguinol]
